BindingDB's records for patent US11225492 (Hangzhou Innogate Pharma Co., Ltd., 2022)

Target: Cyclin-dependent kinase 6 (Homo sapiens, UniProt Q00534)
Assay: Kinase Assay
Experimental: CDK2/CycA2 and CDK6/cycD3 were assayed under buffer conditions in the presence of 50 mM HEPES (pH 7.5), 10 mM MgCl2, 0.0015% Brij-35, and 2 mM dithiothreitol, CDK4/CycD3 with buffer condition of 20 mM HEPES (pH 7.5), 10 mM MgCl2, 0.01% Triton X-100, and 2 mM dithiothreitol. Prepare compounds to 50× of the final desired highest inhibitor concentration by 100% DMSO and serial dilution in 3-fold for total of 10 concentrations. […] After assay for 60 min, 180 min, 60 min respectively at 28° C., reactions were terminated with stop solution (50 mM EDTA, 0.015% Brij-35, 0.2% Coating Reagent #3 and 100 mM HEPES (pH 7.5)). Collect conversion on Caliper EZ Reader.

Chain of Cyclin-dependent kinase 6 (Q00534 whole entry): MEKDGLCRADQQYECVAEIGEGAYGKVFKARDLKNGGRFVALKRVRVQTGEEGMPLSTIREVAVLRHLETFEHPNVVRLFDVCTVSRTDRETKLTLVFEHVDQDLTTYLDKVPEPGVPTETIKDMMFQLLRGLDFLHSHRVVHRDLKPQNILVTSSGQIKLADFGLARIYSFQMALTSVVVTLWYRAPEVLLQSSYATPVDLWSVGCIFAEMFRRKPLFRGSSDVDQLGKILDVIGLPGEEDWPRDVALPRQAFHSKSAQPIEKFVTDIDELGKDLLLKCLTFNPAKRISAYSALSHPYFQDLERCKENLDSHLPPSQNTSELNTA

Row | Compound | IC50 [nM]
1 | CC(=O)c1c(C)c2cnc(Nc3ccc4c(c3)OCC3CNCCN43)nc2n(C2CCCC2)c1=O (racemic) [US11225492, Compound 7] | < 25
2 | CC(=O)c1c(C)c2cnc(Nc3ccc4c(c3)OC[C@H]3CNCCN43)nc2n(C2CCCC2)c1=O [US11225492, Compound 7R] | < 25
3 | CC(=O)c1c(C)c2cnc(Nc3ccc4c(c3)OC[C@@H]3CNCCN43)nc2n(C2CCCC2)c1=O [US11225492, Compound 7S] | < 25
